Measurements reported in patent US10660877B2 (BRISTOL-MYERS SQUIBB COMPANY, priority 2016, dated 2020).
Like-named read-outs stand apart in the source and are kept apart here.

What was measured:
human TLR7 = human TLR7 (Homo sapiens (Human), UniProt Q9NYK1); test: TLR7 inhibition reporter assay (HEK-Blue cells, SEAP reporter, gardiquimod stimulation); format: cell-based
human TLR8 = human TLR8 (Homo sapiens (Human), UniProt Q9NR97); test: TLR8 inhibition reporter assay (HEK-Blue cells, SEAP reporter, R848 stimulation);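 further: compounds tested from 0.05 nM to 50 µM, 22 h at 37 °C, SEAP measured with HEK-Blue Detection, inhibition relative to agonist plus DMSO versus a known inhibitor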
human TLR9 = human TLR9 (Homo sapiens (Human), UniProt Q9NR96); test: TLR9 inhibition reporter assay (HEK-Blue cells, SEAP reporter, ODN2006 stimulation);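 further: compounds tested over 0.05 nM to 50 µM, 22 h incubation, inhibition taken as SEAP signal drop from agonist plus DMSO wells toward a known inhibitor control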
[1] = HEK-Blue cells overexpressing human TLR7, gardiquimod 7.5 μM
[2] = read-out: TLR8 IC50, HEK-Blue cells overexpressing human TLR8, R848 15.9 μM
[3] = read-out: TLR9 IC50, HEK-Blue cells overexpressing human TLR9, ODN2006 5 nM

human TLR8, sequence (Q9NR97 27-1041): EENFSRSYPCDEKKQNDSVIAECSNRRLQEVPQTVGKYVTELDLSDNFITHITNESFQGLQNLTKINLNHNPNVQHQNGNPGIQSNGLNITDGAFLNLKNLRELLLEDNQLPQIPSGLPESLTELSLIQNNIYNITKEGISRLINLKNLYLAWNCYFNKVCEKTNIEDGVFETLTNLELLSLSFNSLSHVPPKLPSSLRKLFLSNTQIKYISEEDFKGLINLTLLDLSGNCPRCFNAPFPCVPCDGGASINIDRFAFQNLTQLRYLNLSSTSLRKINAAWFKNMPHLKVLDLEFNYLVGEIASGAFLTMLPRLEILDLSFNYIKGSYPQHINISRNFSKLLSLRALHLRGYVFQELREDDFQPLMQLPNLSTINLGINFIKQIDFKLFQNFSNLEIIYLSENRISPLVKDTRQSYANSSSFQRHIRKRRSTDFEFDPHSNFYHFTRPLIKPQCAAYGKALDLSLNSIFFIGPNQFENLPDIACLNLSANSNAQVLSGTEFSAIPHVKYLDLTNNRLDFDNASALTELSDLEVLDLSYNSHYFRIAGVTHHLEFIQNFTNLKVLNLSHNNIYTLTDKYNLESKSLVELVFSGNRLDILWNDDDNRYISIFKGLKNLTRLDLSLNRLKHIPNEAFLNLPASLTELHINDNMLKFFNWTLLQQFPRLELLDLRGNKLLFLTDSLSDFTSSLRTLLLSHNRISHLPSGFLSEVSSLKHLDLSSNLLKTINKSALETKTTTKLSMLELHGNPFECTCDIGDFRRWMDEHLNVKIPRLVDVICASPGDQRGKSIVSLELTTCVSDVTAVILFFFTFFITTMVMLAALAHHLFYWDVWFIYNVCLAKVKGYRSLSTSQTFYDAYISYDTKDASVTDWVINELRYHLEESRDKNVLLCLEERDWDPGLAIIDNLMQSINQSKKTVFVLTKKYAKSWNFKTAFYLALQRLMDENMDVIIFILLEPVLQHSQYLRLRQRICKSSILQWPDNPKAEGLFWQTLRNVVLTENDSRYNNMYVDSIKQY
human TLR7, sequence (Q9NYK1 27-1049): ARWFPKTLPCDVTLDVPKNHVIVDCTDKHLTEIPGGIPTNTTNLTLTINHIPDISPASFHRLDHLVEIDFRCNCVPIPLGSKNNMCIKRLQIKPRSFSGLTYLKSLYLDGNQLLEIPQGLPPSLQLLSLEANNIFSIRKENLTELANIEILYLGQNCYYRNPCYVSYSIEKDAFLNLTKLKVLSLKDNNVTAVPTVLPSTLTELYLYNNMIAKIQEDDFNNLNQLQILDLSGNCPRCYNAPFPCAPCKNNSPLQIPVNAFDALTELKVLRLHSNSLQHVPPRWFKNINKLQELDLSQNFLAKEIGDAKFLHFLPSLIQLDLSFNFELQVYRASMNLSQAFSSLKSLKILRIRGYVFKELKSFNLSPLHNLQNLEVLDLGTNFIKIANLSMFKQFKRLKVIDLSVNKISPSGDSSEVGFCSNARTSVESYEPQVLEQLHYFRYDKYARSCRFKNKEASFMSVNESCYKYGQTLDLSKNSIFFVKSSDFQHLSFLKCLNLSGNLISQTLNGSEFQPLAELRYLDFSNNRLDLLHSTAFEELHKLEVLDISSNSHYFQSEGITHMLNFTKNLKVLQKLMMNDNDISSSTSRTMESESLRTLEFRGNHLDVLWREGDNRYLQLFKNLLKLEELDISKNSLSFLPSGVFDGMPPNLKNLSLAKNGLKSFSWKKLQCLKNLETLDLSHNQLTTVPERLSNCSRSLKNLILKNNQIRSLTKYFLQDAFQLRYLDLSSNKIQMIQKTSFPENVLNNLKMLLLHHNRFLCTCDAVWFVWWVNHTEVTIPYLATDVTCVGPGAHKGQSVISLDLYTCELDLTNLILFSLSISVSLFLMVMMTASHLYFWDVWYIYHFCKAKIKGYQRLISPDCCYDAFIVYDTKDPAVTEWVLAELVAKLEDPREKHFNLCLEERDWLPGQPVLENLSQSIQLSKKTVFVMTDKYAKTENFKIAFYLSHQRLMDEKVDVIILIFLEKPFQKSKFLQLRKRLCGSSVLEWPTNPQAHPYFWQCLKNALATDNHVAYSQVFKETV
human TLR9, sequence (Q9NR96 26-1032): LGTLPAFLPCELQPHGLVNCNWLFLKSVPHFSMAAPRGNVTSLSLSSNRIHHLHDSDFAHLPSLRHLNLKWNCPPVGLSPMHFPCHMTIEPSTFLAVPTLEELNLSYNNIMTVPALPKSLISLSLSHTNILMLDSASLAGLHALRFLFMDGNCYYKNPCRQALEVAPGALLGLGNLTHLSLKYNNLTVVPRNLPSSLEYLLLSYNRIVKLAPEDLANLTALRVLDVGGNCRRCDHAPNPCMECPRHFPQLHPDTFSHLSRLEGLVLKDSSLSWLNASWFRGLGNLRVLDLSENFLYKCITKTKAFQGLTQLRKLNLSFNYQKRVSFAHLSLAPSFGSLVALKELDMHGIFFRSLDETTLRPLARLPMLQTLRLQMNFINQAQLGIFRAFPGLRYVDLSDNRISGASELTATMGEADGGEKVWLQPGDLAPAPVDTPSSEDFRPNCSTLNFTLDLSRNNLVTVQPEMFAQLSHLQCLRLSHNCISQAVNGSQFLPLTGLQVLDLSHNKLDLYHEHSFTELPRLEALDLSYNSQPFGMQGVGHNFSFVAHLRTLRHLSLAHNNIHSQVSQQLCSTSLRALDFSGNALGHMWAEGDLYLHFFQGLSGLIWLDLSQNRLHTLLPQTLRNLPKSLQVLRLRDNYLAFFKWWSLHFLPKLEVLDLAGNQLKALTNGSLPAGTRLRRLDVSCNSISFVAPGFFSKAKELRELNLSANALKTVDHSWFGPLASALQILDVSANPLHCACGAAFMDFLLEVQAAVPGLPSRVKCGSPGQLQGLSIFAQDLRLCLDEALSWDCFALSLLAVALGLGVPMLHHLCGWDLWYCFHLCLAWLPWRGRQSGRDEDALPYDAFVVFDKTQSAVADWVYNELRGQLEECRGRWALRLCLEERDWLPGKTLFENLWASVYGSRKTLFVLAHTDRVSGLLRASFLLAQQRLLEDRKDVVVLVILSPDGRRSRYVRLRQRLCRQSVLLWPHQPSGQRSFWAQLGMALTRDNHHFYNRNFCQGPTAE

Row | Structure (SMILES) | IC50 (human TLR7; [1]) [nM] | IC50 (human TLR8; [2]) [nM] | IC50 (human TLR9; [3]) [nM] | IC50 (human TLR8; TLR8 IC50, HEK-Blue cells overexpressing human TLR8, R848 15.9 μM) [nM] | IC50 (human TLR9; TLR9 IC50, HEK-Blue cells overexpressing human TLR9, ODN2006 5 nM) [nM] | IC50 (human TLR7; HEK-Blue cells, gardiquimod 7.5 μM) [nM] | IC50 (human TLR8; read-out: TLR8 IC50, HEK-Blue cells, R848 15.9 μM) [nM] | IC50 (human TLR9; read-out: TLR9 IC50, HEK-Blue cells, ODN2006 5 nM) [nM]
1 | Cc1cc(-c2[nH]c3ccc(C4CCN(CCOc5ccccc5)CC4)cc3c2C(C)C)ccn1 [Example 663, 3-isopropyl-2-(2-methylpyridin-4-yl)-5-(1-(2-phenoxyethyl)piperidin-4-yl)-1H-indole] | 112 | 31.2 | 1100 |  |  |  |  | 
2 | CCc1cc(-c2[nH]c3ccc(C4CCNCC4)cc3c2C(C)C)cc(OC)n1 [Example 487, 2-(2-ethyl-6-methoxypyridin-4-yl)-3-isopropyl-5-(piperidin-4-yl)-1H-indole] | 33.4 | 79.1 | 2140 |  |  |  |  | 
3 | CCC(=O)N1CCC(c2ccc3[nH]c(-c4ccnc(C)c4)c(C(C)C)c3c2)CC1 [Example 603, 1-(4-(3-isopropyl-2-(2-methylpyridin-4-yl)-1H-indol-5-yl)piperidin-1-yl)propan-1-one] | 49 | 228 | 37300 |  |  |  |  | 
4 | Cc1cc(-c2[nH]c3ccc(C4CCN(C(=O)CN(C)CC(C)(C)O)CC4)cc3c2C(C)C)cc(C)n1 [Example 401, 1-(4-(2-(2,6-dimethylpyridin-4-yl)-3-isopropyl-1H-indol-5-yl)piperidin-1-yl)-2-((2-hydroxy-2-methylpropyl)(methyl)amino) ethan-1-one] | 9 | 53 | 1060 |  |  |  |  | 
5 | Cc1cc(-c2[nH]c3ccc(C4CCN(Cc5ccnn5C)CC4)cc3c2C(C)C)cc(C)n1 [Example 461, 2-(2,6-dimethylpyridin-4-yl)-3-isopropyl-5-(1-((1-methyl-1H-pyrazol-5-yl)methyl)piperidin-4-yl)-1H-indole] | 9.3 | 7.5 | 621 |  |  |  |  | 
6 | Cc1cc(-c2[nH]c3ccc(C4CCN(C5CCCOC5)CC4)cc3c2C(C)C)c(C)cn1 (stereo not drawn) [Example 726, 2-(2,5-dimethylpyridin-4-yl)-3-isopropyl-5-(1-(tetrahydro-2H-pyran-3-yl)piperidin-4-yl)-1H-indole] | 14.2 | 1.1 | 1450 |  |  |  |  | 
7 | Cc1cc(-c2[nH]c3ccc(C4CCN(C(=O)[C@@H](N)CCCN)CC4)cc3c2C(C)C)ccn1 [Example 577, (S)-2,5-diamino-1-(4-(3-isopropyl-2-(2-methylpyridin-4-yl)-1H-indol-5-yl)piperidin-1-yl)pentan-1-one] | 121 | 58.4 | 8130 |  |  |  |  | 
8 | Cc1cc(-c2[nH]c3ccc(C4CCN(C(=O)CN(C)C)CC4)cc3c2C(C)C)ccn1 [Example 509, 2-(dimethylamino)-1-(4-(3-isopropyl-2-(2-methylpyridin-4-yl)-1H-indol-5-yl)piperidin-1-yl)ethan-1-one] | 20 | 21.9 | 3710 |  |  |  |  | 
9 | Cc1cc(-c2[nH]c3ccc(C4CCN(C(=O)[C@H]5C[C@H]6CC[C@@H](C5)N6)CC4)cc3c2C(C)C)ccn1 [Example 580, ((1R,3r,5S)-8-azabicyclo[3.2.1]octan-3-yl)(4-(3-isopropyl-2-(2-methylpyridin-4-yl)-1H-indol-5-yl)piperidin-1-yl)methanone] | 67.2 | 53.7 | 508 |  |  |  |  | 
10 | CC(C)c1c(-c2ccnc(Cl)c2C#N)[nH]c2ccc(C3CCNCC3)cc12 [Example 36, 2-chloro-4-(3-isopropyl-5-(piperidin-4-yl)-1H-indol-2-yl)nicotinonitrile] | 1270 | 454 | 4870 |  |  |  |  | 
11 | Cc1cc(-c2[nH]c3ccc(C4CCN(C(=O)C5CC(=O)N(C)C5)CC4)cc3c2C(C)C)cc(F)n1 (stereo not drawn) [Example 502, 4-(4-(2-(2-fluoro-6-methylpyridin-4-yl)-3-isopropyl-1H-indol-5-yl)piperidine-1-carbonyl)-1-methylpyrrolidin-2-one] | 28.4 | 156 | 24700 |  |  |  |  | 
12 | Cc1cc(-c2[nH]c3ccc(C4CCN(C(=O)C5CC(=O)N(C)C5)CC4)cc3c2C(C)C)cc(C)n1 (stereo not drawn) [Example 102, 4-(4-(2-(2,6-dimethylpyridin-4-yl)-3-isopropyl-1H-indol-5-yl)piperidine-1-carbonyl)-1-methylpyrrolidin-2-one] | 7.5 |  |  | 72.6 | 36200 |  |  | 
13 | Cc1cc(-c2[nH]c3ccc(C4CCN(C(=O)Cc5csc(C)n5)CC4)cc3c2C(C)C)cc(C)n1 | 16.4 | 124 | 28800 |  |  |  |  | 
14 | CCc1c(-c2ccnc(N)c2O)[nH]c2ccc(C3CCNCC3)cc12 [Example 71, 2-amino-4-(3-ethyl-5-(piperidin-4-yl)-1H-indol-2-yl)pyridin-3-ol] | 7200 | 5640 | 2830 |  |  |  |  | 
15 | Cc1cc(-c2[nH]c3ccc(C4CCN(CC5CC5)CC4)cc3c2C(C)C)c(C)cn1 [Example 871, 5-(1-(cyclopropylmethyl)piperidin-4-yl)-2-(2,5-dimethylpyridin-4-yl)-3-isopropyl-1H-indole] |  |  |  |  |  | 10 | 3.2 | 1840
16 | Cc1nccc(-c2[nH]c3ccc(C4CCN(C5COC5)CC4)cc3c2C(C)C)c1F [Example 730, 2-(3-fluoro-2-methylpyridin-4-yl)-3-isopropyl-5-(1-(oxetan-3-yl)piperidin-4-yl)-1H-indole] | 9.2 | 8.2 | 9410 |  |  |  |  | 
17 | CC(C)c1c(-c2ccnc(CO)c2)[nH]c2ccc(C3CCNCC3)cc12 [Example 22, (4-(3-isopropyl-5-(piperidin-4-yl)-1H-indol-2-yl)pyridin-2-yl)methanol] | 80.6 | 75 | 1500 |  |  |  |  | 
18 | Cc1cc(-c2[nH]c3ccc(C4CCN(C(=O)CC5CCOCC5)CC4)cc3c2C(C)C)cc(C)n1 [Example 106, 1-(4-(2-(2,6-dimethylpyridin-4-yl)-3-isopropyl-1H-indol-5-yl)piperidin-1-yl)-2-(tetrahydro-2H-pyran-4-yl)ethan-1-one] | 8.2 | 67.4 | 30600 |  |  |  |  | 
19 | Cc1cc(-c2[nH]c3ccc(C4CCN(C(=O)c5c(C)nn(C)c5C)CC4)cc3c2C(C)C)cc(C)n1 [Example 131, (4-(2-(2,6-dimethylpyridin-4-yl)-3-isopropyl-1H-indol-5-yl)piperidin-1-yl)(1,3,5-trimethyl-1H-pyrazol-4-yl)methanone] | 12 | 77.1 | 17500 |  |  |  |  | 
20 | Cc1nc(CN2CCC(c3ccc4[nH]c(-c5ccnc(C6CC6)c5)c(C(C)C)c4c3)CC2)c[nH]1 [Example 484, 2-(2-cyclopropylpyridin-4-yl)-3-isopropyl-5-(1-((2-methyl-1H-imidazol-4-yl)methyl)piperidin-4-yl)-1H-indole] | 77.6 | 96.3 | 279 |  |  |  |  | 

Continued, values first:

Row | IC50 (human TLR7; [1]) [nM] | IC50 (human TLR8; [2]) [nM] | IC50 (human TLR9; [3]) [nM] | IC50 (human TLR8; TLR8 IC50, HEK-Blue cells overexpressing human TLR8, R848 15.9 μM) [nM] | IC50 (human TLR9; TLR9 IC50, HEK-Blue cells overexpressing human TLR9, ODN2006 5 nM) [nM] | IC50 (human TLR7; HEK-Blue cells, gardiquimod 7.5 μM) [nM] | IC50 (human TLR8; read-out: TLR8 IC50, HEK-Blue cells, R848 15.9 μM) [nM] | IC50 (human TLR9; read-out: TLR9 IC50, HEK-Blue cells, ODN2006 5 nM) [nM] | Structure (SMILES)
21 | 4.4 | 13.4 | 584 |  |  |  |  |  | Cc1cc(-c2[nH]c3ccc(C4CCN(C(=O)CN5CC6(COC6)C5)CC4)cc3c2C(C)C)cc(C)n1 [Example 364, 1-(4-(2-(2,6-dimethylpyridin-4-yl)-3-isopropyl-1H-indol-5-yl)piperidin-1-yl)-2-(2-oxa-6-azaspiro[3.3]heptan-6-yl)ethan-1-one]
22 | 1.4 | 3.9 | 359 |  |  |  |  |  | CCCN1CCC(c2ccc3[nH]c(-c4cc(C)nc(C)c4)c(C(C)C)c3c2)CC1 [Example 323, 2-(2,6-dimethylpyridin-4-yl)-3-isopropyl-5-(1-propylpiperidin-4-yl)-1H-indole]
23 | 4.9 | 16.7 | 1390 |  |  |  |  |  | Cc1cc(-c2[nH]c3ccc(C4CCN(C5COC5)CC4)cc3c2C(C)C)cc(C)n1 [Example 452, 2-(2,6-dimethylpyridin-4-yl)-3-isopropyl-5-(1-(oxetan-3-yl)piperidin-4-yl)-1H-indole]
24 | 1.6 | 8 | 579 |  |  |  |  |  | Cc1cc(-c2[nH]c3ccc(C4CCN(C(=O)CN(C)C)CC4)cc3c2C(C)C)cc(C)n1 [Example 98, 2-(dimethylamino)-1-(4-(2-(2,6-dimethylpyridin-4-yl)-3-isopropyl-1H-indol-5-yl)piperidin-1-yl)ethan-1-one]
25 | 2.1 | 18.8 | 264 |  |  |  |  |  | Cc1cc(-c2[nH]c3ccc(C4CCNCC4)cc3c2C(C)C)c(N)c(C)n1 [Example 29, 4-(3-isopropyl-5-(piperidin-4-yl)-1H-indol-2-yl)-2,6-dimethylpyridin-3-amine]
26 | 1.8 | 2.5 | 270 |  |  |  |  |  | Cc1cc(-c2[nH]c3ccc(C4CCN(CCCO)CC4)cc3c2C(C)C)cc(C)n1 [Example 311, 3-(4-(2-(2,6-dimethylpyridin-4-yl)-3-isopropyl-1H-indol-5-yl)piperidin-1-yl)propan-1-ol]
27 | 0.6 | 2.6 | 76 |  |  |  |  |  | CCN(CC)CCCN1CCC(c2ccc3[nH]c(-c4cc(C)nc(C)c4)c(C(C)C)c3c2)CC1 [Example 671, 3-(4-(2-(2,6-dimethylpyridin-4-yl)-3-isopropyl-1H-indol-5-yl)piperidin-1-yl)-N,N-diethylpropan-1-amine]
28 | 6.2 | 5.8 | 396 |  |  |  |  |  | Cc1cc(-c2[nH]c3ccc(C4CCN(Cc5ncccn5)CC4)cc3c2C(C)C)cc(C)n1 [Example 460, 2-(2,6-dimethylpyridin-4-yl)-3-isopropyl-5-(1-(pyrimidin-2-ylmethyl)piperidin-4-yl)-1H-indole]
29 | 1.5 | 2.8 | 73 |  |  |  |  |  | COCCN1CCN(C(=O)CN2CCC(c3ccc4[nH]c(-c5cc(C)nc(C)c5)c(C(C)C)c4c3)CC2)CC1 [Example 265, 2-(4-(2-(2,6-dimethylpyridin-4-yl)-3-isopropyl-1H-indol-5-yl)piperidin-1-yl)-1-(4-(2-methoxyethyl)piperazin-1-yl)ethan-1-one]
